{"source": "patent US8449635B2", "about": "“Abrasive articles and methods for making same” (Saint-Gobain Abrasives, Inc., priority 2007, dated 2013)", "assay": "Solubility of photoinitiator", "type": "physicochemical", "data": [{"compound": "Cc1cc(C)c(C(=O)P(=O)(C(=O)c2c(C)cc(C)cc2C)c2ccccc2)c(C)c1", "note": "[Irgacure 819, bis(2,4,6-trimethylbenzoyl) phenyl phosphine oxide]", "values": [{"measurement": "Solubility (wt %)", "value": "<5", "unit": "wt %"}]}]}
